Experiments:
THP1-FRb = experiment: CAR-T cell activation markers (CD69, CD137, PD1) after 24 h co-culture with EC17-preloaded targets; assay type: cell-based, human; conditions: targets preloaded with 100 nM EC17 30 min, E/T 1:1, 24 hours
Description: (§1) To study CAR-T cell activation in the presence of FR+ tumor cell targets (FIG. 53), co-culture experiments were initially carried out with MDA-MB-231, THP1-FRβ and HOS-FRα. […] After 24 hours of co-culture, the surface expression of T cell activation markers CD69, CD137 (4-1BB), and PD1 were analyzed by flow cytometry. For T cell exhaustion studies (FIG. 54), FR+(KB, MDA-MB-231, HOS-FRα^fLuc, THP1-FRβ) and FR-negative (HOS-143b^fLuc, THP1-FG12) tumor cell lines were used as targets. Here, target cells were incubated on day 0 without or with 0.1 and 10 nM of EC17 for 30 min at 37° C. and the status of EC17 “pre-loading” was assessed by counterstaining cell-surface EC17 with an anti-FITC antibody (FIG. 61A). Three days later, the surface expression of PD1, LAG3, and TIM3 inhibitor receptors on co-cultured CAR-T cells were analyzed and higher frequencies of double- and triple-positive cells were considered approaching an exhausted phenotype.
(§2) To examine antigen-dependent CAR-T cell activation, MDA-MB-231, THP1-FRβ and HOS-FRα cells were preloaded with 100 nM EC17 over 30 min. […] After 24 hours of co-culture, we measured the surface expression of T cell activation markers CD69, CD137 (4-1BB) and PD1 (FIG. 53). […] Importantly, the mock controls T cells were not activated under these conditions. Some FR+ tumor types (e.g. KB) display a natural resistance to killing by EC17-directed CAR T cells (FIGS. 56, 58, 59, and 60), we studied T cell activation versus exhaustion as a mechanism of EC17 CAM action. Both FR+(KB, MDA-MB-231, HOS-FRα^fLuc, THP1-FRβ) and FR-negative (HOS-143b^fLuc, THP1-FG12) tumor cell lines were chosen for this purpose. HOS-FRα^fLuc expressed ˜5.6× lower level of functional FR than its parent HOS-FRα, and HOS-143b^fLuc was FR-negative similar to HOS-143b (FIG. 59A). […] Three days later, co-cultured CAR-T cells were measured for upregulation and co-expression of T cell activation/exhaustion markers PD1, LAG3 and TIM3. […]

HOS-FRα = experiment: as above; assay type: cell-based, human; conditions: targets preloaded with 100 nM EC17 30 min, E/T 1:1, 24 hours
Description: as §1, §2

MDA-MB-231 = experiment: as above; assay type: cell-based, human; conditions: targets preloaded with 100 nM EC17 30 min, E/T 1:1, 24 hours
Description: as §1, §2

FRα (KB) = target: T1, FRα (KB) (Homo sapiens, UniProt P15328); experiment: 3H-EC17 cell-based radioligand binding assay, KB cells; conditions: 2 h at 37° C.
T1 construct: endogenous in cells; host or cells: KB cells (human cervical carcinoma with HeLa markers)
Description: The bispecific affinities of EC17 CAM were assessed using ^3H-EC17 in cell-based radioligand binding assays. For binding to FR+ targets, KB and CHO-β cells were pre-seeded overnight in 24-well tissue culture plates and incubated with 0.1, 0.5, 1, 5, 10, 20, and 40 nM of ^3H-EC17 in FFRPMI for 2 h at 37° C. Afterwards, the cells were rinsed with phosphate-buffered saline (PBS, pH 7.4) and lysed with 1% sodium dodecylsulfate. The whole cell lysates were quantitated for the level of radioactivity and cellular protein content by standard Pierce BCA protein assay. The number of ^3H-EC17 molecules bound per cell was calculated to determine the dissociation constants (Kd) for FRα (KB) and FRβ (CHO-b) respectively (FIG. 56A, FIG. 56B).

T1 sequence (P15328 25-234): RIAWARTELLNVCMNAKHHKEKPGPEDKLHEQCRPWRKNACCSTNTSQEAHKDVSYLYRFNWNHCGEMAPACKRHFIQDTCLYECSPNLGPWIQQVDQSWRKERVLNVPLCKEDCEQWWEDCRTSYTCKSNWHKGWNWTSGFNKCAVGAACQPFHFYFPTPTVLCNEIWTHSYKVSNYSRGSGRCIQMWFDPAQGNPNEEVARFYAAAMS

## NC1=NC2N=CC(CNc3ccc(C(=O)N[C@@H](CCC(=O)NCCNC(=S)Nc4ccc(-c5c6ccc(=O)cc-6oc6cc(O)ccc56)c(C(=O)O)c4)C(=O)O)cc3)=NC2C(=O)N1 (stereo partly shown) [EC17, FA-(g)-ethylenediamine-FITC]
THP1-FRb
  CAR-T cell activation (CD69, CD137, PD1): did trigger CAR-T cell activation, but at lower levels
HOS-FRα
  CAR-T cell activation (CD69, CD137, PD1): strong activators of our CAR-T cells
MDA-MB-231
  CAR-T cell activation (CD69, CD137, PD1): strong activators of our CAR-T cells
FRα (KB)
  Kd: 1.7 nM

Source: patent US11311576B2, “Methods of use for CAR T cells” (Seattle Children's Hospital, priority 2018, dated 2022)
